Inconclusive results and toxic doses are left out.
System: L1210 leukemia ip in BDF1 mice, survival T/C
Assay: NCI In Vivo Anticancer Drug Screen. Data for tumor model L1210 Leukemia (intraperitoneal) in B6D2F1 (BDF1) mice
Settings: endpoint: mean survival time, higher = longer survival
Method in brief: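 Transplanted-tumor mice were given test agent; controls received vehicle only. Survival readings from the two groups were divided (treated over control).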

[1] = dose: 100.0 mg/kg/injection, schedule: Q01DX009 (ip), vehicle: saline
[2] = dose: 100.0 mg/kg/injection, schedule: Q04DX003 (ip), vehicle: saline
[3] = dose: 200.0 mg/kg/injection, schedule: Q01DX009 (ip), vehicle: saline
[4] = dose: 200.0 mg/kg/injection, schedule: Q04DX003 (ip), vehicle: saline
[5] = dose: 400.0 mg/kg/injection, schedule: Q01DX009 (ip), vehicle: saline
[6] = dose: 400.0 mg/kg/injection, schedule: Q04DX003 (ip), vehicle: saline
[7] = dose: 100.0 mg/kg/injection, schedule: Q01DX001 (ip), vehicle: other
[8] = dose: 200.0 mg/kg/injection, schedule: Q01DX001 (ip), vehicle: other
[9] = dose: 400.0 mg/kg/injection, schedule: Q01DX001 (ip), vehicle: other
[10] = dose: 100.0 mg/kg/injection, schedule: Q01DX001 (ip), vehicle: carboxymethylcellulose (CMC)
[11] = dose: 200.0 mg/kg/injection, schedule: Q01DX001 (ip), vehicle: carboxymethylcellulose (CMC)
[12] = dose: 400.0 mg/kg/injection, schedule: Q01DX001 (ip), vehicle: carboxymethylcellulose (CMC)
[13] = dose: 150.0 mg/kg/injection, schedule: Q01DX001 (ip), vehicle: carboxymethylcellulose (CMC)
[14] = dose: 400.0 mg/kg/injection, schedule: Q04DX002 (ip), vehicle: saline with Tween-80

NC(N)=N/N=C(/C(=N\N=C(N)N)c1ccco1)c1ccco1 was tested, and the T/C (dose: 8.0 mg/kg/injection, schedule: Q01DX Z (oral), vehicle: methylcellulose (MC)) was 89 % of control, the T/C (dose: 15.0 mg/kg/injection, schedule: Q01DX Z (ip), vehicle: methylcellulose (MC)) was 100 % of control and the T/C (dose: 15.0 mg/kg/injection, schedule: Q01DX Z (oral), vehicle: methylcellulose (MC)) was 96 % of control. For the same compound, the T/C (dose: 30.0 mg/kg/injection, schedule: Q01DX Z (oral), vehicle: methylcellulose (MC)) was 105 % of control.

O=C(CCC(=O)c1cccc([N+](=O)[O-])c1)NNc1ccc([N+](=O)[O-])cc1[N+](=O)[O-] was tested, and the T/C (dose: 100.0 mg/kg/injection, schedule: Q01DX009 (ip), vehicle: saline with Tween-80) was 95 % of control, the T/C (dose: 200.0 mg/kg/injection, schedule: Q01DX009 (ip), vehicle: saline with Tween-80) was 105 % of control and the T/C (dose: 400.0 mg/kg/injection, schedule: Q01DX009 (ip), vehicle: saline with Tween-80) was 92 % of control.

In the case of Cc1noc(N)c1[N+](=O)[O-], the T/C (dose: 12.5 mg/kg/injection, schedule: Q01DX009 (ip), vehicle: saline) is reported as 97 % of control, the T/C (dose: 25.0 mg/kg/injection, schedule: Q01DX009 (ip), vehicle: saline) is reported as 109 % of control and the T/C (dose: 50.0 mg/kg/injection, schedule: Q01DX009 (ip), vehicle: saline) is reported as 97 % of control. The T/C [1] was 86 % of control, the T/C (dose: 100.0 mg/kg/injection, schedule: Q04DX003 (ip), vehicle: other) was 92 % of control and the T/C (dose: 200.0 mg/kg/injection, schedule: Q04DX003 (ip), vehicle: other) was 96 % of control. For the same compound, the T/C (dose: 400.0 mg/kg/injection, schedule: Q04DX003 (ip), vehicle: other) was 92 % of control.

N#CSCc1cc([N+](=O)[O-])c(CSC#N)c([N+](=O)[O-])c1Cl was tested, and the T/C (dose: 25.0 mg/kg/injection, schedule: Q01DX009 (ip), vehicle: other) was 89 % of control, the T/C (dose: 100.0 mg/kg/injection, schedule: Q04DX003 (ip), vehicle: carboxymethylcellulose (CMC)) was 87 % of control and the T/C (dose: 200.0 mg/kg/injection, schedule: Q04DX003 (ip), vehicle: carboxymethylcellulose (CMC)) was 93 % of control.

In the case of O=c1cc(-c2ccccc2)nc(SCc2ccccc2Cl)[nH]1, the T/C (dose: 25.0 mg/kg/injection, schedule: Q01DX Z (ip), vehicle: methylcellulose (MC)) is reported as 94 % of control.

For COCC(N)=O, the T/C [1] was 95 % of control, the T/C [2] was 107 % of control and the T/C [3] was 97 % of control. For the same compound, the T/C [4] was 107 % of control, the T/C [5] was 97 % of control and the T/C [6] was 101 % of control.

For O=C(N/N=C/c1ccc(Cl)cc1)C(c1ccccc1)N1CCCCC1 (stereo not given), the T/C [7] was 96 % of control, the T/C [8] was 87 % of control and the T/C [9] was 93 % of control.

With CN(C)CCC(O)C(c1ccccc1)c1ccccc1 (stereo not given) the T/C (dose: 75.0 mg/kg/injection, schedule: Q01DX001 (ip), vehicle: saline) was 100 % of control and the T/C (dose: 150.0 mg/kg/injection, schedule: Q01DX001 (ip), vehicle: saline) was 102 % of control.

With Oc1ccc2ccccc2c1C=NCC1CCC(CN=Cc2c(O)ccc3ccccc23)CC1 (stereo not given) the T/C (dose: 100.0 mg/kg/injection, schedule: Q01DX001 (ip), vehicle: saline) was 91 % of control, the T/C (dose: 200.0 mg/kg/injection, schedule: Q01DX001 (ip), vehicle: saline) was 95 % of control and the T/C (dose: 400.0 mg/kg/injection, schedule: Q01DX001 (ip), vehicle: saline) was 88 % of control.

For N#CC(CCCc1cccc(N2CN=C(N)N=C2N)c1)c1ccccc1 (stereo not given), the T/C (dose: 50.0 mg/kg/injection, schedule: Q01DX001 (ip), vehicle: saline) was 96 % of control.

For O=P(CCl)(CCCl)CCCl, the T/C (dose: 50.0 mg/kg/injection, schedule: Q04DX003 (ip), vehicle: saline) was 101 % of control, the T/C [2] was 103 % of control and the T/C [4] was 103 % of control. The T/C [6] was 89 % of control.

With Cn1c2ccccc2c(=O)c2c(O)cc3c(c21)C=CC(C)(C)O3 the T/C (dose: 50.0 mg/kg/injection, schedule: Q01DX001 (ip), vehicle: carboxymethylcellulose (CMC)) was 98 % of control, the T/C [10] was 90 % of control and the T/C [11] was 88 % of control. For the same compound, the T/C [12] was 88 % of control.

N#CSCCOCCSC#N was tested, and the T/C (dose: 5.0 mg/kg/injection, schedule: Q01DX001 (ip), vehicle: saline) was 108 % of control and the T/C (dose: 10.0 mg/kg/injection, schedule: Q01DX001 (ip), vehicle: saline) was 96 % of control.

O=NN(CCCl)C(=O)Nc1ccc2oc(=O)c3ccccc3c2c1 was tested, and the T/C (dose: 1.25 mg/kg/injection, schedule: Q01DX001 (ip), vehicle: Klucel (hydroxypropylcellulose) (HPC)) was 123 % of control, the T/C (dose: 2.5 mg/kg/injection, schedule: Q01DX001 (ip), vehicle: Klucel (hydroxypropylcellulose) (HPC)) was 105 % of control and the T/C (dose: 5.0 mg/kg/injection, schedule: Q01DX001 (ip), vehicle: Klucel (hydroxypropylcellulose) (HPC)) was 112 % of control. For the same compound, the T/C (dose: 10.0 mg/kg/injection, schedule: Q01DX001 (ip), vehicle: carboxymethylcellulose (CMC)) was 150 % of control, the T/C (dose: 35.0 mg/kg/injection, schedule: Q01DX001 (ip), vehicle: carboxymethylcellulose (CMC)) was 164 % of control and the T/C [13] was 120 % of control. For the same compound, the T/C (dose: 177.0 mg/kg/injection, schedule: Q01DX009 (ip), vehicle: carboxymethylcellulose (CMC)) was 101 % of control, the T/C (dose: 266.0 mg/kg/injection, schedule: Q01DX009 (ip), vehicle: carboxymethylcellulose (CMC)) was 95 % of control and the T/C (dose: 400.0 mg/kg/injection, schedule: Q01DX009 (ip), vehicle: carboxymethylcellulose (CMC)) was 92 % of control. The T/C (dose: 600.0 mg/kg/injection, schedule: Q01DX001 (ip), vehicle: carboxymethylcellulose (CMC)) was 152 % of control and the T/C (dose: 600.0 mg/kg/injection, schedule: Q01DX009 (ip), vehicle: carboxymethylcellulose (CMC)) was 87 % of control.

In the case of OC1CC2(Cl)C(Cl)=C(Cl)C1(Cl)C2(Cl)Cl (stereo not given), the T/C (dose: 75.0 mg/kg/injection, schedule: Q01DX001 (ip), vehicle: carboxymethylcellulose (CMC)) is reported as 87 % of control, the T/C [13] is reported as 95 % of control and the T/C (dose: 300.0 mg/kg/injection, schedule: Q01DX001 (ip), vehicle: carboxymethylcellulose (CMC)) is reported as 93 % of control.

For CCCCCCCN(CCCCCCC)C(=O)N(CC)CC, the T/C (dose: 100.0 mg/kg/injection, schedule: Q04DX002 (ip), vehicle: saline with Tween-80) was 93 % of control, the T/C (dose: 200.0 mg/kg/injection, schedule: Q04DX002 (ip), vehicle: saline with Tween-80) was 93 % of control and the T/C [14] was 97 % of control.

For O=C(Nc1ccc(Cl)cc1[N+](=O)[O-])Oc1ccc(C(=O)OCc2ccccc2)cc1, the T/C (dose: 100.0 mg/kg/injection, schedule: Q01DX009 (ip), vehicle: Klucel (hydroxypropylcellulose) (HPC)) was 101 % of control, the T/C (dose: 200.0 mg/kg/injection, schedule: Q01DX009 (ip), vehicle: Klucel (hydroxypropylcellulose) (HPC)) was 103 % of control and the T/C (dose: 400.0 mg/kg/injection, schedule: Q01DX009 (ip), vehicle: Klucel (hydroxypropylcellulose) (HPC)) was 110 % of control.

COc1ccc(NP2(=O)OCC(C)(N)CO2)cc1 (stereo not given) was tested, and the T/C [10] was 91 % of control, the T/C [11] was 96 % of control and the T/C [12] was 91 % of control.

For N=C(N)SCCC(=O)O, the T/C [1] was 100 % of control, the T/C [2] was 90 % of control and the T/C [3] was 110 % of control. The T/C [4] was 96 % of control, the T/C [5] was 115 % of control and the T/C [6] was 95 % of control.

With CCCCCCCCCCCCCCCCCCOCCCCCCCCCCCC the T/C [7] was 97 % of control, the T/C [8] was 92 % of control and the T/C [9] was 93 % of control.

In the case of Fc1cc(F)c(F)c(Nc2ccccc2)c1F, the T/C (dose: 25.6 mg/kg/injection, schedule: Q04DX002 (ip), vehicle: saline with Tween-80) is reported as 113 % of control, the T/C (dose: 64.0 mg/kg/injection, schedule: Q04DX002 (ip), vehicle: saline with Tween-80) is reported as 89 % of control and the T/C (dose: 160.0 mg/kg/injection, schedule: Q04DX002 (ip), vehicle: saline with Tween-80) is reported as 95 % of control. For the same compound, the T/C [14] was 106 % of control.

CN(CCc1ccccc1)C(N)=S was tested, and the T/C (dose: 75.0 mg/kg/injection, schedule: Q01DX001 (ip), vehicle: acetone) was 96 % of control.

— PubChem BioAssay AID248 (DTP/NCI, 2004)
